Assay: wn = mass fraction of the nth substance listed
Conditions: Liquid; for mass density: Vibrating tube method

OCCN(CCO)CCO [triethanolamine] + O
viscosity [mPa·s]
Conditions | w1 = 0.0992 | w1 = 0.1 | w1 = 0.2 | w1 = 0.2991 | w1 = 0.3 | w1 = 0.4
293.15 K, 100 kPa, Concentric cylinders viscometry | – | 1.41 | 2.066 | – | 3.197 | 5.34
293.15 K, 100 kPa, Falling or rolling sphere viscometry | 1.429 | – | 2.037 | 3.208 | – | 5.317
293.15 K, 5000 kPa, Falling or rolling sphere viscometry | 1.459 | – | 2.036 | 3.212 | – | 5.311
293.15 K, 10000 kPa, Falling or rolling sphere viscometry | 1.455 | – | 2.035 | 3.229 | – | 5.331
293.15 K, 15000 kPa, Falling or rolling sphere viscometry | 1.454 | – | 2.04 | 3.18 | – | 5.376
293.15 K, 20000 kPa, Falling or rolling sphere viscometry | 1.45 | – | 2.042 | 3.234 | – | 5.417
293.15 K, 25000 kPa, Falling or rolling sphere viscometry | 1.447 | – | 2.044 | 3.242 | – | 5.445
293.15 K, 30000 kPa, Falling or rolling sphere viscometry | 1.446 | – | 2.046 | 3.245 | – | 5.5
293.15 K, 40000 kPa, Falling or rolling sphere viscometry | 1.443 | – | 2.051 | 3.288 | – | 5.549
293.15 K, 60000 kPa, Falling or rolling sphere viscometry | 1.44 | – | 2.064 | 3.325 | – | 5.675
293.15 K, 80000 kPa, Falling or rolling sphere viscometry | 1.447 | – | 2.08 | 3.373 | – | 5.792
293.15 K, 100000 kPa, Falling or rolling sphere viscometry | 1.448 | – | 2.098 | 3.446 | – | 5.987
313.15 K, 100 kPa, Concentric cylinders viscometry | – | 0.881 | 1.244 | – | 1.786 | 2.756
313.15 K, 100 kPa, Falling or rolling sphere viscometry | 0.909 | – | 1.203 | 1.786 | – | 2.788
313.15 K, 5000 kPa, Falling or rolling sphere viscometry | 0.8937 | – | 1.208 | 1.797 | – | 2.794
313.15 K, 10000 kPa, Falling or rolling sphere viscometry | 0.8956 | – | 1.21 | 1.808 | – | 2.797
313.15 K, 15000 kPa, Falling or rolling sphere viscometry | 0.8964 | – | 1.214 | 1.818 | – | 2.828
313.15 K, 20000 kPa, Falling or rolling sphere viscometry | 0.8965 | – | 1.22 | 1.832 | – | 2.852
313.15 K, 25000 kPa, Falling or rolling sphere viscometry | 0.8977 | – | 1.225 | 1.835 | – | 2.866

mass density [kg/m3]
Conditions | w1 = 0.0992 | w1 = 0.2 | w1 = 0.2991 | w1 = 0.4
293.15 K, 100 kPa | 1013.3 | 1029.5 | 1046.1 | 1065.2
293.15 K, 500 kPa | 1013.5 | 1029.5 | 1046.2 | 1065.3
293.15 K, 1000 kPa | 1013.7 | 1029.7 | 1046.4 | 1065.4
293.15 K, 2000 kPa | 1014.2 | 1030.2 | 1046.8 | 1065.8
293.15 K, 5000 kPa | 1015.5 | 1031.4 | 1047.9 | 1066.9
293.15 K, 10000 kPa | 1017.6 | 1033.4 | 1049.8 | 1068.7
293.15 K, 15000 kPa | 1019.6 | 1035.4 | 1051.7 | 1070.5
293.15 K, 20000 kPa | 1021.8 | 1037.4 | 1053.7 | 1072.3
293.15 K, 30000 kPa | 1026 | 1041.4 | 1057.4 | 1075.8
293.15 K, 40000 kPa | 1030 | 1045.2 | 1061.1 | 1079.3
293.15 K, 50000 kPa | 1034 | 1049 | 1064.7 | 1082.7
293.15 K, 60000 kPa | 1037.9 | 1052.7 | 1068.3 | 1086.1
293.15 K, 70000 kPa | 1041.8 | 1056.4 | 1071.8 | 1089.4
293.15 K, 80000 kPa | 1045.5 | 1059.8 | 1075.1 | 1092.5
293.15 K, 90000 kPa | 1049.1 | 1063.4 | 1078.5 | 1095.8
293.15 K, 100000 kPa | 1052.9 | 1066.9 | 1081.8 | 1098.9
293.15 K, 110000 kPa | 1056.3 | 1070.2 | 1084.9 | 1101.8
293.15 K, 120000 kPa | 1059.8 | 1073.6 | 1088.2 | 1104.9
293.15 K, 130000 kPa | 1063.3 | 1077 | 1091.5 | 1107.9
293.15 K, 140000 kPa | 1066.5 | 1080.1 | 1094.5 | 1110.8
313.15 K, 100 kPa | 1006.9 | 1021.9 | 1037.4 | 1055.1
313.15 K, 500 kPa | 1007 | 1022.1 | 1037.5 | 1055.3
313.15 K, 1000 kPa | 1007.2 | 1022.3 | 1037.7 | 1055.4
313.15 K, 2000 kPa | 1007.6 | 1022.7 | 1038.1 | 1055.8
313.15 K, 5000 kPa | 1008.9 | 1023.9 | 1039.3 | 1056.9
313.15 K, 10000 kPa | 1010.9 | 1025.9 | 1041.2 | 1058.8
313.15 K, 15000 kPa | 1013 | 1027.8 | 1043.1 | 1060.6
313.15 K, 20000 kPa | 1015 | 1029.7 | 1045 | 1062.4
